Drawing on ChEMBL document CHEMBL1144867, “Antiviral amphipathic oligo- and polyribonucleotides: analogue development and biological studies” (J Med Chem, 2003), this text covers EC50 for one molecule.

This experiment has as its system MRC5. The experiment in a line: Inhibitory activity of compound against human cytomegalovirus (HCMV) in MRC-5 cells. It counts as functional, cell-based.

pEC50: −log10 of the molar value.

On to `Nc1nc2c(ncn2COC(CO)CO)c(=O)[nH]1` [GANCICLOVIR], for which the negative logarithm of the EC50 (pEC50) (usually −log10 of the EC50, conventionally taken in molar units) is 5.03.
